Assay results from patent publication US6753000B2, “Hydroxystilbene/ascorbic acid compositions for treating skin afflictions” (L'Oreal, priority 1999, dated 2004).

System: normal human dermal fibroblast cultures
Experiment: Incorporation of radioactive (tritiated) thymidine into normal human dermal fibroblast cultures (fibroblast proliferation)
Format: cell-based
Conditions: for % (thymidine incorporation relative to untreated control = 100) / cpm (counts per minute), tritiated thymidine incorporated: 48 hours contact, 24 hours labeling, EGF 1.67 × 10^−3 μM, vitamin C 20 μM, resveratrol 5 μM, or 5 μM resveratrol + 20 μM vitamin C; for cpm (counts per minute), tritiated thymidine incorporated: untreated control 10320; for %, difference relative to the untreated control / cpm, difference relative to the untreated control: same treatments, value in brackets
Protocol: The study has carried out by measuring the incorporation of radioactive thymidine into normal human dermal fibroblast cultures.
The fibroblast cultures were prepared according to the standard methods of cell culturing, i.e., in MEM/M199 medium marketed by Gibco, in the presence of sodium bicarbonate (1.87 mg/ml), L-glutamine (2 mM), penicillin (50 IU/ml) and 10% foetal calf serum (Gibco).
The test was carried out on cell cultures at 80% of confluence on 24-well plates. Resveratrol, at a concentration of 1.25 μM and 5 μM, was placed in contact with the cells for 48 hours. Labeling with tritiated thymidine ([methyl-3H] thymidine marketed by Amersham, 82 Ci/mmol) was carried out for 24 hours.
The level of tritiated thymidine incorporated was measured at the end of the test by acidic precipitation of the proteins on filters and counting by liquid scintillation.
The results were evaluated relative to a control consisting of cells which had not been treated.
A positive control [EGF: Epidermal Growth Factor] at 1.67×10^−3 μM, which was known to stimulate fibroblast proliferation, was introduced into the test by way of reference.

| Molecule | % (thymidine incorporation relative to untreated control = 100) | cpm (counts per minute), tritiated thymidine incorporated | %, difference relative to the untreated control | cpm, difference relative to the untreated control |
| --- | --- | --- | --- | --- |
| Oc1ccc(C=Cc2cc(O)cc(O)c2)cc1 [resveratrol, 3,4′,5-Trihydroxystilbene] | 110% | 11365 cpm | +10% | (+1045) cpm |
| O=C1O[C@H]([C@@H](O)CO)C(O)=C1O [vitamin C, ascorbic acid] | 132% | 13595 cpm | +32% | (+3275) cpm |
| EGF: Epidermal Growth Factor, positive control known to stimulate fibroblast proliferation | 283% | 29214 cpm | +183% | (+18894) cpm |
